According to patent publication US20240415805A1 (priority 2023, published 2024):
“Also recorded” adds a separate entry of the source.

Key:
Pg 33277 = test: Antibiotic protection assay: invasion of Pg cells into human primary oral keratinocytes; type: cell-based; settings: Porphyromonas gingivalis, 33277, Keratinocyte, read-out: Pg inhibited from entry into HOKs
Method: Inhibition of Pg cells invasion by GM. The ability of Pg to invade oral epithelial cells was determined using an antibiotic protection assay as described^28. Human primary oral keratinocytes (HOKs, 5×10^4 cells, ScienCell® Research Laboratories) were seeded in a 24-well plate. After incubating with Pg 33277 for 1 h, HOKs were continually cultured for another 4 h in the presence of antibiotics (gentamicin (300 μg/ml) and metronidazole (200 μg/ml)) to eliminate extracellular bacteria. The HOKs were then lysed, and the internalized bacteria were plated on TSB blood agar plates. The plates were incubated anaerobically at 37° C. for 7 days, and CFUs of Pg were enumerated. […] In the presence of 40 nM GM, more than 95% of Pg were inhibited from entry into HOKs. In addition, the role of GM in Pg re-entry was tested. After exposure to Pg cells for 1 h and then antibiotic treatment for 4 h, HOKs were continuously cultured for 24 h in the presence of GM (20 nM), antibiotics, or GM and antibiotics. Intracellular Pg was determined as described^28. As expected, intracellular Pg cells moved in and out of the HOKs.

HOKs = test: HOK cell viability (Promega CellTiter-Glo); type: cell-based, human; settings: 48 h
Method: Each bar represents the mean±standard deviation of luminescence levels representing relative the number of viable cells. Data are the mean of at least three independent experiments.
To examine potential cytotoxic effects of GM, HOKs were cultured in the presence of a range of GM from 0 to 1,000 nM for 48 h and the number of viable cells in the culture was determined using Promega™ CellTiter-Glo™.

Pg 33277 vesicles = settings: 30 μM; previously reported; cited from earlier work

In the case of `C=C(C)[C@@]12C[C@@H](COC(=O)c3ccccc3)[C@@]34OC5(O[C@@H]1[C@@H]3[C@@H]1O[C@]1(CO)[C@@H](O)[C@@]1(O)[C@H]4[C@H]([C@H](C)[C@@H]1OC(=O)c1ccccc1)[C@H](C)CCCCCC[C@H]5O)O2` [GM, gnidimacrin], the inhibition at 0.04 µM (Pg 33277) was > 95%, the “cell viability of HOKs” value (HOKs; GM 0 to 1,000 nM, as high as luM) was “does not affect host cell viability; also recorded: no impact” and the “highest concentration without viability effect relative to the concentration that inhibits Pg invasion” value (HOKs; HOKs) was “approximately 50 times”.

For `O=C(N/N=C/c1ccc(O)c(O)c1)c1cc2ccccc2cc1O` [dynasore], the Pg vesicle invasion (Pg 33277 vesicles) is given as “inhibited the vesicle invasion”.
